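Where inhibition never reached the appropriate level, the endpoint shown equals the highest concentration tested. Otherwise, values were interpolated linearly from a five-concentration, 48-hour dose response in 96-well plates. TGI denotes the concentration required for complete inhibition of growth.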
Key:
Test in all cases: NCI tumour cell line growth inhibition, 48 h
NCI-H226 lung = test system: NCI-H226 lung
CCRF-CEM leukemia = test system: CCRF-CEM leukemia
A549 NSCLC = test system: A549 NSCLC
NCI-H522 lung = test system: NCI-H522 lung
SK-MEL-2 melanoma = test system: SK-MEL-2 melanoma
EKVX NSCLC = test system: EKVX NSCLC
MCF7 breast = test system: MCF7 breast
SN12C renal = test system: SN12C renal
NCI-H460 lung = test system: NCI-H460 lung
SF-268 CNS = test system: SF-268 CNS
PC-3 prostate = test system: PC-3 prostate
DU-145 prostate = test system: DU-145 prostate
M14 melanoma = test system: M14 melanoma
HCC-2998 colon = test system: HCC-2998 colon
MOLT-4 leukemia = test system: MOLT-4 leukemia
SK-MEL-5 melanoma = test system: SK-MEL-5 melanoma
OVCAR-8 ovarian = test system: OVCAR-8 ovarian
OVCAR-5 ovarian = test system: OVCAR-5 ovarian
NCI-H23 lung = test system: NCI-H23 lung
IGROV1 ovarian = test system: IGROV1 ovarian
SK-MEL-28 melanoma = test system: SK-MEL-28 melanoma
UO-31 renal = test system: UO-31 renal
UACC-62 melanoma = test system: UACC-62 melanoma
K-562 leukemia = test system: K-562 leukemia
CAKI-1 renal = test system: CAKI-1 renal
SF-539 CNS = test system: SF-539 CNS
OVCAR-3 ovarian = test system: OVCAR-3 ovarian
SK-OV-3 ovarian = test system: SK-OV-3 ovarian
NCI/ADR-RES ovarian = test system: NCI/ADR-RES ovarian
786-0 renal = test system: 786-0 renal
SNB-75 CNS = test system: SNB-75 CNS
BT-549 breast = test system: BT-549 breast
SF-295 CNS = test system: SF-295 CNS
RPMI-8226 leukemia = test system: RPMI-8226 leukemia
SR leukemia = test system: SR leukemia
MDA-N = test system: MDA-N
MALME-3M melanoma = test system: MALME-3M melanoma
OVCAR-4 ovarian = test system: OVCAR-4 ovarian
COLO 205 colon = test system: COLO 205 colon
SW-620 colon = test system: SW-620 colon
LOX IMVI melanoma = test system: LOX IMVI melanoma
ACHN renal = test system: ACHN renal
HOP-62 NSCLC = test system: HOP-62 NSCLC
HOP-92 NSCLC = test system: HOP-92 NSCLC
HCT-15 colon = test system: HCT-15 colon
MDA-MB-231 breast = test system: MDA-MB-231 breast
HT29 colon = test system: HT29 colon
HCT-116 colon = test system: HCT-116 colon
RXF 393 renal = test system: RXF 393 renal
U251 CNS = test system: U251 CNS
TK-10 renal = test system: TK-10 renal
KM12 colon = test system: KM12 colon
UACC-257 melanoma = test system: UACC-257 melanoma
MDA-MB-435 = test system: MDA-MB-435
SNB-19 CNS = test system: SNB-19 CNS

Question: Which results are given for C=CCOCC1C2CCC3(OCCO3)C21 (stereo not given)?
Answer: TGI (NCI-H226 lung): > 100 µM; TGI (CCRF-CEM leukemia): > 100 µM; TGI (A549 NSCLC): > 100 µM; TGI (NCI-H522 lung): > 100 µM; TGI (SK-MEL-2 melanoma): > 100 µM; TGI (EKVX NSCLC): > 100 µM; TGI (MCF7 breast): > 100 µM; TGI (SN12C renal): > 100 µM; TGI (NCI-H460 lung): > 100 µM; TGI (SF-268 CNS): > 100 µM; TGI (PC-3 prostate): > 100 µM; TGI (DU-145 prostate): > 100 µM; TGI (M14 melanoma): > 100 µM; TGI (HCC-2998 colon): > 100 µM; TGI (MOLT-4 leukemia): > 100 µM; TGI (SK-MEL-5 melanoma): > 100 µM; TGI (OVCAR-8 ovarian): > 100 µM; TGI (OVCAR-5 ovarian): > 100 µM; TGI (NCI-H23 lung): > 100 µM; TGI (IGROV1 ovarian): > 100 µM; TGI (SK-MEL-28 melanoma): > 100 µM; TGI (UO-31 renal): 75.2 µM; TGI (UACC-62 melanoma): > 100 µM; TGI (K-562 leukemia): > 100 µM; TGI (CAKI-1 renal): 87.5 µM; TGI (SF-539 CNS): > 100 µM; TGI (OVCAR-3 ovarian): > 100 µM; TGI (SK-OV-3 ovarian): > 100 µM; TGI (NCI/ADR-RES ovarian): > 100 µM; TGI (786-0 renal): > 100 µM; TGI (SNB-75 CNS): > 100 µM; TGI (BT-549 breast): > 100 µM; TGI (SF-295 CNS): > 100 µM; TGI (RPMI-8226 leukemia): > 100 µM; TGI (SR leukemia): > 100 µM; TGI (MDA-N): > 100 µM; TGI (MALME-3M melanoma): > 100 µM; TGI (OVCAR-4 ovarian): > 100 µM; TGI (COLO 205 colon): > 100 µM; TGI (SW-620 colon): > 100 µM; TGI (LOX IMVI melanoma): > 100 µM; TGI (ACHN renal): > 100 µM; TGI (HOP-62 NSCLC): > 100 µM; TGI (HOP-92 NSCLC): > 100 µM; TGI (HCT-15 colon): > 100 µM; TGI (MDA-MB-231 breast): > 100 µM; TGI (HT29 colon): > 100 µM; TGI (HCT-116 colon): > 100 µM; TGI (RXF 393 renal): > 100 µM; TGI (U251 CNS): > 100 µM; TGI (TK-10 renal): > 100 µM; TGI (KM12 colon): > 100 µM; TGI (UACC-257 melanoma): > 100 µM; TGI (MDA-MB-435): > 100 µM; TGI (SNB-19 CNS): > 100 µM

Reference: PubChem BioAssay (NCI)
